According to PubChem BioAssay AID506 (SGCOxCompounds, 2006):

These compounds were tested against Serine/threonine-protein kinase Nek2 (Homo sapiens) (UniProt P51955) (assay: NEK2 binders by thermal shift, biophysical, DSF, SYPRO orange, recombinant protein (AID 506)). Details: at 10 µM, protein 2 µM, hits give high values; call rule not given here.
Serine/threonine-protein kinase Nek2 (Homo sapiens), sequence (P51955 whole entry, looked up): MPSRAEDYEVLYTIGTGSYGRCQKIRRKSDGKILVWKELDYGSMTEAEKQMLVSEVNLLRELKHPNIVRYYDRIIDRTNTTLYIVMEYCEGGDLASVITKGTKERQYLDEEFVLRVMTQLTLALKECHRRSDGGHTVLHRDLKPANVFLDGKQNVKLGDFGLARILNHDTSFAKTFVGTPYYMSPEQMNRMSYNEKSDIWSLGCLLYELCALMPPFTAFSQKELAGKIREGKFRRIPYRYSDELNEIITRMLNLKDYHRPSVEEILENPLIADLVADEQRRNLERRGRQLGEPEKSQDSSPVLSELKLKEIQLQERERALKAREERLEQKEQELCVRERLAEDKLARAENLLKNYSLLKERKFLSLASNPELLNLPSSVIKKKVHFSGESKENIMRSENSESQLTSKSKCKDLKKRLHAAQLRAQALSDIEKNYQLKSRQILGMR

Tm shift, active:
Nc1nc(Nc2ccc(S(N)(=O)=O)cc2)nn1C(=S)Nc1c(F)cccc1F 3.1 °C
Nc1cccc(-c2cc3c(Oc4cccc(O)c4)ncnc3[nH]2)c1 3.3 °C
Clc1cccc(Nc2ccn3ncc(-c4ccc5c(c4)OCO5)c3n2)c1 3.3 °C
Nc1cc2ncnc(Nc3cccc(Br)c3)c2cc1N 3.3 °C
O=Nc1c(-c2c(O)[nH]c3ccc(S(O)(O)O)cc23)[nH]c2ccccc12 3.2 °C
O=C1NCc2c1c1c3ccccc3[nH]c1c1[nH]c3ccccc3c21 3.7 °C
CCN(CC)CCNC(=O)c1c(C)[nH]c(/C=C2\C(=O)Nc3ccc(Cl)cc32)c1C 5.4 °C
Cc1cc(Nc2nc(-c3ccccc3)nc3ccccc23)n[nH]1 3.7 °C
C=CCNC(=O)c1cccc2c1-c1ccccc1C2=O 4.6 °C
O=c1c(O)c(-c2ccc(O)c(O)c2)oc2cc(O)cc(O)c12 3.4 °C
COc1cccc(-c2cnn3ccc(Nc4cccc(Cl)c4)nc23)c1 3.2 °C
NC(=O)Nc1sc(-c2ccccc2)cc1C(N)=O 3.1 °C
OCC(O)CCO/N=C1/C(c2c(O)[nH]c3ccccc23)=Nc2ccccc21 (stereo unspecified) 3.3 °C
NS(=O)(=O)c1ccc(Nc2nc(OCC3CCCCC3)c3[nH]cnc3n2)cc1 5.6 °C
O=C1C(C2=C3C(=Nc4ccccc43)/C(=C\c3ccc(O)cc3)C2=O)=C2C(=Nc3ccccc32)/C1=C\c1ccc(O)cc1 3.2 °C
Cn1cc(/C=C2\C(=O)Nc3ccc(S(N)(=O)=O)cc32)c2ccccc21 6 °C
